Data taken from US7420060B2, “Benzopyran derivatives substituted with a thioxobenzoxazole derivative, pharmaceutically acceptable salts thereof, their preparations and pharmaceutical compositions containing them” (Schaeffler KG, priority 2003, dated 2008).

How the values were obtained:
[1] = system: ischemic heart isolated from white rat; assay: Cardioprotective effect on isolated ischemic rat heart (Langendorff, 30 min global ischemia / 30 min reperfusion); settings: 10 μM; for LDH (concentration of lactate dehydogenase): after 30 min reperfusion; for EDP (left ventricular end diastolic pressure): after reperfusion, baseline set at 5 mmHg; for LVDP × HR (left ventricular developed pressure × heart rate): reperfusion DP as % of pre-treatment DP, 30 min after reperfusion
Experimental: 100 mg/kg of sodium pentobarbital was injected in abdominal cavity of white male rats (300˜450 g, obtained form the experimental animal team of the Korea Research Institute of Chemical Technology) to anesthetize them. Then, an intravenous injection of 1000 U/kg of heparin was performed before taking out heart. Particularly, cannula(PE 240) was inserted in the trachea, and artificial respiration was tried upon the rat by using a rodent ventilator. Under that condition, aortic cannula was inserted in the aorta and heart was taken out under retrograde perfusion. The extracted heart was hung on Langendorff apparatus quickly and unnecessary tissues on heart were removed. Perfusion was induced under static pressure (85 mmHg) with 37° C. modified Krebs-Henseleit bicarbonate buffer (composition <mM/L>: 116 NaCl, 4.7 KCl, 1.1 MgSO4, 1.17 KH2PO4, 24.9 NaHCO3, 2.52 CaCl2, 8.32 Glucose, 2.0 Pyruvate) saturated with 95% O2/5% CO2. A metal cannula, to which a latex balloon filled with an ethanol-distilled water mixture (1:1 vol/vol) was linked, was inserted in left ventricle through pulmonary vein. Then, left ventricular pressure transmitted through the balloon was transduced by using pressure transducer, and amplified by using Plugsys bridge amplifier isovolumetrically. Then, the pressure was recorded in a recorder (Linearcorder mark 8 WR 3500). Thereafter, heart was stabilized for 15 minutes. Then, left ventricular end diastolic pressure (LVEDP) was given by 5 mmHg and such volume of the balloon was kept all through the experiments.
Baseline cardiac contractile function, heart rate (HR), and coronary flow (CF) were measured. Cardiac contractile function was calculated by […], yielding LVDP (left ventricular developed pressure). Double product RPP (rate-pressure product)(DP), another important parameter for indirectly assessing cardiac performance in Langendorff heart, whose cardiac output could not be measured ordinarily, was calculated by multiplying HR by LVDP. Throughout the experiment, total coronary blood flow was measured by the use of coronary flow probe (diameter: 1.0 mm) installed in aortic cannula with electromagnetic flowmeter. Temperature of heart was steadily maintained by immersing the heart at 37° C. in physiological saline solution to which 95% O2/5% CO2 was constantly supplied. After stabilization for 15 min, the hearts were pre-treated for 10 min with vehicle (0.04% DMSO) only or a compound of the present invention or the control material in the vehicle. Thereafter, cardiac contractile function, HR and CF were repeatedly measured. Global ischemia was induced by completely shutting off the perfusate for 30 min. Severity of ischemia was determined as the time to contracture (TTC, min) during global ischemia in which the first 5 mmHg increase in EDP was observed. Then, the hearts were reperfused and, 30 min later, contractile functions (LVDP, HR and CF) were repeatedly measured. After reperfusion was accomplished for 30 min, LDH (lactate dehydrogenase) was measured with a kit as a sensitive index for loss of cell viability.

[2] = system: ischemic myocardial injury models prepared from white rats; assay: Antiischemic activity in the anesthetized rat ischemic myocardial injury model (coronary occlusion 45 min / reperfusion 90 min); format: in vivo; settings: 0.3 mg/kg, intravenous (femoral vein), 30 min before occlusion
Experimental: 75 mg/kg of sodium pentobarbital was injected in abdominal cavity of white male rats (350-450 g, Laboratory Animal Division, Korea Research Institute of Chemical Technology) to anesthetize them. After performing tracheotomy, artificial respiration was induced by 10 ml/kg of stroke volume and 60/min. of heart rate. Cannula was inserted in each of vena fermoralis and aorta fermoralis, through which medicines were administered and blood pressure was measured. In the meantime, since body temperature in a ischemic myocardial injury model was very important factor, directly influencing a result, the temperature of a rat was always kept at 37° C. by using a probe for measuring body temperature inserted in rectum and homeothermic blanket control unit. Mean arterial blood pressure and heart rate (HR) of the rat were measured all through the experiments. Statham P23XL pressure transducer (Grass Ins., MA., USA) was used for measuring blood pressure and ECG/RATE Coupler (Hugo Sachs Electronic, Germany) was used for measuring HR. In addition, all the changes were recorded successively by graphtec linearcorder chart recorder (Graphtec Linearcorder WR 3310, Hugo Sachs Electronic).
According to the method of Selye H, left coronary aorta was occluded as follows. Left thoracotomy was induced. That is, the chest of a rat was a little opened. The right chest of the anesthetized rat was pressurized by the middle finger of left hand, so that the heart was pushed out. The heart was fixed gently by the thumb and the index finger of the left hand. A stitch was carefully put on a part including left anterior descending coronary artery by a suture needle with operating thread (5-0 silk ligature), and the heart was quickly positioned again in thoracic cavity. Then, both ends of operating thread were exposed outside. Both ends of operating thread were passed through PE tube (PE100, 2.5 cm) and left for 20 minutes for stabilization. A vehicle or a medicine was administered through the cannula inserted in femoral vein, which was left for 30 minutes in order for the medicine to work thoroughly. BMS-180448 was used for a control group and the dosage of each test medicine and a control medicine was 0.3 mg/kg each. […]
The coronary artery was reoccluded according to the above method and 2 ml of 1% Evans blue solution was administered by intravenous injection. […] The surface of each slice was inputted in a computer by using Hi-scope, a compact micro vision system, and Image pro plus program, from which both normal blood flow tissue area stained by blue and non-stained area on each slice were measured. The ratio of non-stained area to the gross area of each slice was calculated, by which the weight of each slice was multiplied to calculate AAR (area at risk) of each slice. […]

[3] = during 30 min global ischemia, first 5 mmHg increase in EDP

Compound | LDH (concentration of lactate dehydogenase) [1] [unit/g] | EDP (left ventricular end diastolic pressure) [1] [mmHg] | TTC (time to induce contraction / time to contracture) [1, 3] [min] | LVDP × HR (left ventricular developed pressure × heart rate) [1] [%] | IZ/AAR(%) myocardial infarction size to area at risk [2] [%] | TTC (time to induce contraction / time to contracture) [1] [min]
COC(OC)[C@]1(C)Oc2ccc([N+](=O)[O-])cc2[C@@H](n2c(=S)oc3ccccc32)[C@@H]1O [Example 2, (2R,3S,4R)-6-nitro-3,4-dihydro-3-hydroxy-2-dimethoxymethyl-2-methyl-4-(2-thioxobenzoxazol-3-yl)-2H-1-benzopyran] | 17.9 | 29.3 | 24.4 | 57.6 |  | 
CC1(C)Oc2ccc(C#N)cc2[C@@H](NC(=NC#N)Nc2ccc(Cl)cc2)[C@@H]1O [BMS-180448, reference compound] | 17.2 | 16.5 | 27.8 | 67.6 | 39.1 | 
COC(OC)[C@]1(C)Oc2ccc([N+](=O)[O-])cc2[C@H](n2c(=S)oc3cc([N+](=O)[O-])ccc32)[C@H]1O [Example 9, (2R,3R,4S)-6-nitro-3,4-dihydro-3-hydroxy-2-dimethoxymethyl-2-methyl-4-(6-nitro-2-thioxobenzoxazol-3-yl)-2H-1-benzopyran] | 30.1 | 27.0 |  | 61.1 |  | 23.5
COc1ccc2oc(=S)n([C@H]3c4cc([N+](=O)[O-])ccc4O[C@@](C)(C(OC)OC)[C@@H]3O)c2c1 [Example 10, (2R,3R,4S)-6-nitro-3,4-dihydro-3-hydroxy-2-dimethoxymethyl-2-methyl-4-(5-methoxy-2-thioxobenzoxazol-3-yl)-2H-1-benzopyran] | 17.3 | 36.7 | 24.4 | 54.2 | 46.6 | 
COC(OC)[C@@]1(C)Oc2ccc([N+](=O)[O-])cc2[C@H](n2c(=S)oc3ccccc32)[C@H]1O [Example 3, (2S,3R,4S)-6-nitro-3,4-dihydro-3-hydroxy-2-dimethoxymethyl-2-methyl-4-(2-thioxobenzoxazol-3-yl)-2H-1-benzopyran] | 12.6 | 15.3 | 26.6 | 66.8 |  | 
COC(OC)[C@]1(C)Oc2ccc([N+](=O)[O-])cc2[C@H](n2c(=S)oc3cc(C)ccc32)[C@H]1O [Example 5, (2R,3R,4S)-6-nitro-3,4-dihydro-3-hydroxy-2-dimethoxymethyl-2-methyl-4-(6-methyl-2-thioxobenzoxazol-3-yl)-2H-1-benzopyran] | 20.2 | 21.0 | 29.0 | 47.4 |  | 
COC(OC)[C@]1(C)Oc2ccc(N)cc2[C@@H](n2c(=S)oc3ccccc32)[C@@H]1O [Example 20, (2R,3S,4R)-6-amino-3,4-dihydro-3-hydroxy-2-dimethoxymethyl-2-methyl-4-(2-thioxobenzoxazol-3-yl)-2H-1-benzopyran] | 3.9 | 43.3 | 21.3 | 42.0 |  | 
COC(OC)[C@]1(C)Oc2ccc([N+](=O)[O-])cc2[C@H](n2c(=S)oc3ccc(C(F)(F)F)cc32)[C@H]1O [Example 16, (2R,3R,4S)-6-nitro-3,4-dihydro-3-hydroxy-2-dimethoxymethyl-2-methyl-4-(5-trifluoromethyl-2-thioxobenzoxazol-3-yl)-2H-1-benzopyran] |  | 13.3 | 26.5 | 79.3 |  | 
COC(OC)[C@]1(C)Oc2ccc(NC(=O)C(F)(F)F)cc2[C@H](n2c(=S)oc3ccccc32)[C@H]1O [Example 36, (2R,3R,4S)-6-trifluoroacetylamino-3,4-dihydro-3-hydroxy-2-dimethoxymethyl-2-methyl-4-(2-thioxobenzoxazol-3-yl)-2H-1-benzopyran] |  | 27.3 | 24.9 | 48.4 |  | 
COC(OC)[C@]1(C)Oc2ccc([N+](=O)[O-])cc2[C@H](n2c(=S)oc3ccc(Cl)cc32)[C@H]1O [Example 7, (2R,3R,4S)-6-nitro-3,4-dihydro-3-hydroxy-2-dimethoxymethyl-2-methyl-4-(5-chloro-2-thioxobenzoxazol-3-yl)-2H-1-benzopyran] | 21.1 | 23.3 | 25.6 | 59.4 |  | 
